In article PMC9867837 (Cancer letters, 2022):

Experiments:
[1] = tested on: pS727Stat3, pYStat1, pY416Src, pY1068EGFR, pShc, pErk1/2MAPK, pS473Akt, and pJAK2; assay: Western blotting for other signaling proteins in TNBC cells; format: cell-based, human; conditions: MDA-MB-231 and MDA-MB-468, 0.5–3 μM H182 for 2 h
Method: These studies were performed as previously described. Details are presented in Supplementary Information, “Methods”.
We sought to assess any non-specific effects of the azetidine compounds. […] Samples of equal total protein were subjected to SDS-PAGE and Western blotting analysis. […] The total protein levels were unchanged, and the tubulin, β-actin, and GAPDH levels show equal protein loading.
These studies were performed as previously described [1 -3] . Briefly, snap-frozen tumor tissues or cultured cells treated or not were harvested and whole-cell or tissue lysates were prepared in radioimmunoprecipitation assay (RIPA) buffer. Samples of equal total protein were subjected to SDS - PAGE and immunoblotting analysis. Primary antibodies used were anti- Stat3, pY705-Stat3, pS727Stat3, […]
Akt, pT202/Y204Erk1/2 (p44/42), Erk1/2, PARP , caspase 3, c-Myc, survivin, VEGF, β-actin, α/β-tubulin, and GAPDH. For the studies of the effects of cell density and confluence on pY705Stat3, cells were seeded […] in culture dishes. The next day, cells were untreated (DMSO control, […]
concentration of H182 for 6 h and then treated with 0- 100 nM docetaxel or 0-20 µM cisplatin for a total of 72 h. Viable cell numbers were assessed by a CyQuant cell proliferation kit according to the manufacturer’s instructions (Thermo/Life Technologies Corp, Carlsbad, CA). […]

CYP2D6 = target: T1, CYP2D6 (Homo sapiens, UniProt P10635); assay: CYP inhibition, CYP2D6; format: in vitro ADME; conditions: read-out: CYP Inhibition CYP2D6 % Inh at 10 μM
T1 construct: Eurofins-CEREP (contract research organisation that ran the assay)
Method: The in vivo activity of a compound is influenced by its overall bioavailability, which is also driven by parameters, such as solubility, permeability, and metabolism. […] These values are all above the industry cut-off of 60 μg/ml. […] It has CLint in human hepatocytes of 16 μL/min/10^6 cells, which falls into moderate stability range [43].

Plasma stability, human = format: in vitro ADME
Method: Solubility, human (HLM) and mouse liver microsomal (MLM), and plasma stability studies were performed by Eurofins Cerep Panlabs and Eurofin Discovery Services (www.eurofins.com/PharmaDiscovery), while protein binding studies were performed by Sanford Burnham Prebys Chemical Biology & Drug Discovery Core using standard protocols.

[2] = target: T2, glucocorticoid receptor (GR) (Homo sapiens, UniProt P04150); assay: CEREP SafetyScreen44, glucocorticoid receptor; format: binding
T2 construct: Eurofins-CEREP (SafetyScreen44 panel)

Stat3 = Stat3 (Homo sapiens, UniProt P40763); assay: Immunofluorescence confocal microscopy of Stat3 localization; format: cell-based; set-up: endogenous in cells; conditions: MDA-MB-231 and MDA-MB-468, 1 or 2 μM H182, 12 h
Method: These studies were performed as previously reported. Details are presented in Supplementary Information, “Methods”.
During confluence of cultured cells, the cell-to-cell adhesion and cadherin engagement trigger increased Tyr705Stat3 phosphorylation in a variety of cell lines. To investigate the impact of cell-to-cell adhesion and cadherin engagement, parallel studies were conducted in which cells in culture were untreated or treated with 1 or 2 μM H182 for 0.5–48 h, and whole-cell lysates prepared and immunoprobed for pTyr705Stat3. […] After 48-h incubation, the cell confluency of the DMSO-treated samples reached to around 60% for MDA-MB-468 cells and 80% for MDA-MB-231 cells. […] In the untreated cells, Stat3 (red punctate) staining was predominantly localized in the nucleus of the tumor cells, with weak presence in the cytoplasm (Fig. 4F, 0, Stat3, red merged with blue DAPI nuclear staining). […] Total Stat3 protein levels in all of these studies were unchanged, and GAPDH, tubulin or β-actin levels show equal protein loading. The percent changes induced by H182 treatment on Stat3 DNA-binding activity and phosphorylation in the treated cells are shown.
These studies were performed as previously reported . […]

T2 sequence (P04150 whole entry): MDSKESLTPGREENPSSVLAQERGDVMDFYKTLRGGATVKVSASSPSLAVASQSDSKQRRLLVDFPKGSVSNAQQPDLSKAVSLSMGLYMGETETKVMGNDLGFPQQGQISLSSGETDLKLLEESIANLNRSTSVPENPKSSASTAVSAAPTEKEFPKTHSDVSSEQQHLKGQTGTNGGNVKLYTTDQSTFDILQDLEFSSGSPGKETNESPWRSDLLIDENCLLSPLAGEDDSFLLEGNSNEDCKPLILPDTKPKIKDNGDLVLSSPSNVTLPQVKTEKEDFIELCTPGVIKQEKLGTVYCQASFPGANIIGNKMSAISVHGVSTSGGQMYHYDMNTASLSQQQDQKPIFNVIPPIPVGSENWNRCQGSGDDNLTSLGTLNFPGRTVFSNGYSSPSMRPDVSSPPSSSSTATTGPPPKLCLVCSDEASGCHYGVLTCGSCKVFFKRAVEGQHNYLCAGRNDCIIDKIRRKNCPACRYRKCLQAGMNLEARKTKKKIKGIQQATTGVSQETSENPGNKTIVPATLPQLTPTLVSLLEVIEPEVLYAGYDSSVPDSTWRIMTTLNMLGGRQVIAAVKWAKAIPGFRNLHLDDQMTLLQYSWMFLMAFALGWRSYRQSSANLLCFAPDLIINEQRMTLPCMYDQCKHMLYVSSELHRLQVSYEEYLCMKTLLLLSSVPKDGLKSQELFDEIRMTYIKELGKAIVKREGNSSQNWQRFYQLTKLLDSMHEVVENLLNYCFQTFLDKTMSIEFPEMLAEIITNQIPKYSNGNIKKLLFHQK
T1 sequence (P10635 whole entry, species assumed): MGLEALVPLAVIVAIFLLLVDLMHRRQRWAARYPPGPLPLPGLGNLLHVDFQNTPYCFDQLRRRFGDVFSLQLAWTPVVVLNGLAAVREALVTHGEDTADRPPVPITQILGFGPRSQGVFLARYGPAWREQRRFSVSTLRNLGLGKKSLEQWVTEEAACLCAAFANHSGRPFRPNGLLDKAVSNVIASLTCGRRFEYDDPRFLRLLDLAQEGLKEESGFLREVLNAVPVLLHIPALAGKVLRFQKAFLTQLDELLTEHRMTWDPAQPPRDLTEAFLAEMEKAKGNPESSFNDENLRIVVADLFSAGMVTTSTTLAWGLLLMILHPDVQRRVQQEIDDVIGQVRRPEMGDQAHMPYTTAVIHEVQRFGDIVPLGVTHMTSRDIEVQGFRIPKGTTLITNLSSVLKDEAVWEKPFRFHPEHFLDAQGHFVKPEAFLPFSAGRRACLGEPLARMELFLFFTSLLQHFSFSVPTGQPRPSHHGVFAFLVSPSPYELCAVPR
Sequence of Stat3 (P40763 whole entry): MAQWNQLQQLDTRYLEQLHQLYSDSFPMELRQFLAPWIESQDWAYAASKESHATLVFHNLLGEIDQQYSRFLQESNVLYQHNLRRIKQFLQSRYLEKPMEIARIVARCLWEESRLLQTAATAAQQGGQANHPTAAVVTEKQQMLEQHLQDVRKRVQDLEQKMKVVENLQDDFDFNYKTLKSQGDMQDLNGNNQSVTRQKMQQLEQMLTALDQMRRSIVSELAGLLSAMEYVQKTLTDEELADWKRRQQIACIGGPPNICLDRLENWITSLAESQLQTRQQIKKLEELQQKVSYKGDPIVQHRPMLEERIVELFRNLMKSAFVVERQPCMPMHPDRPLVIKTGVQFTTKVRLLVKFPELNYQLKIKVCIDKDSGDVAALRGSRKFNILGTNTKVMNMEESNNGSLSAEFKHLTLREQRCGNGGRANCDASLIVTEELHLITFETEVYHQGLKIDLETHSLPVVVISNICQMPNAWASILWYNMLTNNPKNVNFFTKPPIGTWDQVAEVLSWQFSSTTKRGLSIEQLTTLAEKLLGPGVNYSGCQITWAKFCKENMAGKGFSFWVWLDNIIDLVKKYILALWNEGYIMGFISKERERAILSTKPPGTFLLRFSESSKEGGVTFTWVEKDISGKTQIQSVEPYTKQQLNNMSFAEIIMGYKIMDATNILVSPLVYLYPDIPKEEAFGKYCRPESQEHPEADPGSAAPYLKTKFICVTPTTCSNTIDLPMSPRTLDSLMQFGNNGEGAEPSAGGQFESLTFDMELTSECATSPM

O=C([C@H]1CCN1S(=O)(=O)c1c(F)c(F)c(F)c(F)c1F)N(Cc1ccc(C2CCCCC2)cn1)c1ccc2c(=O)[nH]ncc2c1 [Compound H182]
Effect on constitutive or EGF-induced pS727Stat3, pYStat1, pY416Src, pY1068EGFR, pShc, pErk1/2MAPK, pS473Akt, and pJAK2 [1]: no inhibitory effect | inhibition at 10 µM (CYP2D6): 9% | remaining at 1 h (Plasma stability, human; 1 h): 53% | remaining at 2 h (Plasma stability, human; 2 h): 10% | inhibition at 10 µM ([2]; 10 μM H182): > 80% | IC50 ([2]; SafetyScreen44 follow-up dose-response): 110 nM | Effect on intracellular localization of Stat3 (Stat3): decreased nuclear Stat3 staining and Stat3 aggregation at the perinuclear region
